Earlier results in US20260021069A1, “ADVANTAGEOUS FLUOROB[…] THE TREATMENT OF MENTAL DISORDERS OR ENHANCEMENT” (TACTOGEN INC, priority 2023, published 2026).

How the values were obtained:
[1] = system: DAT and SERT; conditions: release based; Rothman et al. 2012
[2] = system: DAT and SERT; conditions: uptake inhibition IC50 based; literature value
[3] = after 75 or 125 mg MDMA; standard deviation of 1.3 hours; Vizeli & Liechti 2017
[4] = system: DAT and NET; conditions: Rothman et al. 2001

SMILES	DAT/SERT EC50 ratio [1]	DAT/SERT ratio (1/IC50 at DAT divided by 1/IC50 at SERT) [2]	duration of acute therapeutic effects [3] [h]	DAT/NET EC50 ratio [4]
CCNC(C)Cc1ccc2c(c1)OCO2 (stereo not drawn) [MDEA, 3,4-methylenedioxy-N-ethylamphetamine]	0.76	3.2		
CNC(C)Cc1ccc2c(c1)OCO2 (stereo not drawn) [MDMA]		0.08	4.2	
C[C@H](N)Cc1ccccc1 [d-amphetamine]				0.9
CN[C@@H](C)Cc1ccccc1 [d-methamphetamine]				0.5
